Measured values published in ChEMBL document CHEMBL3885861, “Open TG-GATES”.

Organism: Rattus norvegicus
Assay: Open TG-GATES - Regimen: Single
Assay type: toxicity, organism-based, Sprague-Dawley
Design: regimen Single, gender Male, age 6 weeks
Conditions: in vivo, po, 1000 mg/kg, route gavage, dose level Middle; for APTT / Bas / Eos / Fbg / Hb / Ht / Lym / MCH / MCHC / MCV / Mono / Neu / PT / Plat / RBC / Ret / WBC: tissue Blood; for KIDNEY_L / KIDNEY_R / KIDNEY_TOTAL: tissue Kidney; for LIVER: tissue Liver; for A/G / ALP / ALT / AST / BUN / CRE / Ca / Cl / DBIL / GLC / IP / K / LDH / Na / PL / RALB / TBIL / TC / TG / TP / gamma-GTP: tissue Plasma

Clc1c(Cl)c(Cl)c(Cl)c(Cl)c1Cl [PERCHLOROBENZENE]
TERMINAL_BW (3 h): 222.7 g
APTT (3 h): 18.7 s
Bas (3 h): 0%
Eos (3 h): 1%
Fbg (3 h): 227 mg/dL
Hb (3 h): 13.3 g/dL
Ht (3 h): 38%
Lym (3 h): 78%
MCH (3 h): 21.8 pg
MCHC (3 h): 35%
MCV (3 h): 62.1 fL
Mono (3 h): 3.2%
Neu (3 h): 16.4%
PT (3 h): 11.8 s
Plat (3 h): 122.1 x10_4/uL
RBC (3 h): 612 x10_4/ul
Ret (3 h): 7.6%
WBC (3 h): 85.3 x10_2/uL
KIDNEY_L (3 h): 1 g
KIDNEY_R (3 h): 1 g
KIDNEY_TOTAL (3 h): 1.9 g
LIVER (3 h): 10.4 g
A/G (3 h): 1.7
ALP (3 h): 992 IU/L
ALT (3 h): 35.2 IU/L
AST (3 h): 79.2 IU/L
BUN (3 h): 11.6 mg/dL
CRE (3 h): 0.4 mg/dL
Ca (3 h): 10.9 mg/dL
Cl (3 h): 104 meq/L
DBIL (3 h): 0.066 mg/dL
GLC (3 h): 198.4 mg/dL
IP (3 h): 8.8 mg/dL
K (3 h): 3.8 meq/L
LDH (3 h): 214 IU/L
Na (3 h): 141.6 meq/L
PL (3 h): 143.8 mg/dL
RALB (3 h): 3.5 g/dL
TBIL (3 h): 0.1 mg/dL
TC (3 h): 68.6 mg/dL
TG (3 h): 94.8 mg/dL
TP (3 h): 5.5 g/dL
gamma-GTP (3 h): 1 IU/L
TERMINAL_BW (6 h): 217.7 g
APTT (6 h): 18.9 s
Bas (6 h): 0.2%
Eos (6 h): 1%
Fbg (6 h): 223.2 mg/dL
Hb (6 h): 13.4 g/dL
Ht (6 h): 38.5%
Lym (6 h): 71.2%
MCH (6 h): 21.6 pg
MCHC (6 h): 34.9%
MCV (6 h): 62.1 fL
Mono (6 h): 3.2%
Neu (6 h): 23.4%
PT (6 h): 12.2 s
Plat (6 h): 132.8 x10_4/uL
RBC (6 h): 620.2 x10_4/ul
Ret (6 h): 7.3%
WBC (6 h): 100.6 x10_2/uL
KIDNEY_L (6 h): 1 g
KIDNEY_R (6 h): 0.9 g
KIDNEY_TOTAL (6 h): 1.9 g
LIVER (6 h): 9 g
A/G (6 h): 1.7
ALP (6 h): 1078.8 IU/L
ALT (6 h): 33.4 IU/L
AST (6 h): 79 IU/L
BUN (6 h): 10 mg/dL
CRE (6 h): 0.4 mg/dL
Ca (6 h): 10.5 mg/dL
Cl (6 h): 103.4 meq/L
DBIL (6 h): 0.064 mg/dL
GLC (6 h): 186 mg/dL
IP (6 h): 9 mg/dL
K (6 h): 4.1 meq/L
LDH (6 h): 224 IU/L
Na (6 h): 141.4 meq/L
PL (6 h): 127.4 mg/dL
RALB (6 h): 3.4 g/dL
TBIL (6 h): 0.1 mg/dL
TC (6 h): 69.4 mg/dL
TG (6 h): 55.2 mg/dL
TP (6 h): 5.4 g/dL
gamma-GTP (6 h): 1 IU/L
TERMINAL_BW (9 h): 216.4 g
APTT (9 h): 19.1 s
Bas (9 h): 0.2%
Eos (9 h): 1%
Fbg (9 h): 220.6 mg/dL
Hb (9 h): 13.5 g/dL
Ht (9 h): 38.5%
Lym (9 h): 72%
MCH (9 h): 21.2 pg
MCHC (9 h): 34.9%
MCV (9 h): 60.6 fL
Mono (9 h): 2.8%
Neu (9 h): 23%
PT (9 h): 12.3 s
Plat (9 h): 124.7 x10_4/uL
RBC (9 h): 636 x10_4/ul
Ret (9 h): 6.9%
WBC (9 h): 72.6 x10_2/uL
KIDNEY_L (9 h): 1 g
KIDNEY_R (9 h): 1 g
KIDNEY_TOTAL (9 h): 1.9 g
LIVER (9 h): 8.8 g
A/G (9 h): 1.6
ALP (9 h): 926.6 IU/L
ALT (9 h): 27.4 IU/L
AST (9 h): 63.4 IU/L
BUN (9 h): 11.2 mg/dL
CRE (9 h): 0.3 mg/dL
Ca (9 h): 10.5 mg/dL
Cl (9 h): 103.4 meq/L
DBIL (9 h): 0.058 mg/dL
GLC (9 h): 201.2 mg/dL
IP (9 h): 10.4 mg/dL
K (9 h): 3.8 meq/L
LDH (9 h): 191.4 IU/L
Na (9 h): 142 meq/L
PL (9 h): 121.2 mg/dL
RALB (9 h): 3.3 g/dL
TBIL (9 h): 0.1 mg/dL
TC (9 h): 61 mg/dL
TG (9 h): 39 mg/dL
TP (9 h): 5.4 g/dL
gamma-GTP (9 h): 1.2 IU/L
TERMINAL_BW (24 h): 230.6 g
APTT (24 h): 18.3 s
Bas (24 h): 0.2%
Eos (24 h): 1%
Fbg (24 h): 240.8 mg/dL
Hb (24 h): 13.6 g/dL
Ht (24 h): 39.3%
Lym (24 h): 74.2%
MCH (24 h): 21.3 pg
MCHC (24 h): 34.5%
MCV (24 h): 61.6 fL
Mono (24 h): 3%
Neu (24 h): 20.6%
PT (24 h): 11.7 s
Plat (24 h): 128 x10_4/uL
RBC (24 h): 637.6 x10_4/ul
Ret (24 h): 6.5%
WBC (24 h): 80.8 x10_2/uL
KIDNEY_L (24 h): 1 g
KIDNEY_R (24 h): 1 g
KIDNEY_TOTAL (24 h): 2.1 g
LIVER (24 h): 11.1 g
A/G (24 h): 1.5
ALP (24 h): 901 IU/L
ALT (24 h): 35.4 IU/L
AST (24 h): 66.2 IU/L
BUN (24 h): 14.2 mg/dL
CRE (24 h): 0.4 mg/dL
Ca (24 h): 11 mg/dL
Cl (24 h): 103.4 meq/L
DBIL (24 h): 0.056 mg/dL
GLC (24 h): 204.8 mg/dL
IP (24 h): 6.9 mg/dL
K (24 h): 3.8 meq/L
LDH (24 h): 230.6 IU/L
Na (24 h): 141.4 meq/L
PL (24 h): 152.8 mg/dL
RALB (24 h): 3.4 g/dL
TBIL (24 h): 0.096 mg/dL
TC (24 h): 80.4 mg/dL
TG (24 h): 133.6 mg/dL
TP (24 h): 5.6 g/dL
gamma-GTP (24 h): 1 IU/L
